Consider three molecules from patent US20260315410A1, “COMBINATION FOR ENHANCING BONE GROWTH AND/OR BONE STRENGTH” (SOCIÉTÉ DES PRODUITS NESTLÉ S.A., priority 2023, published 2026).

Each structure is given as a SMILES string.

Assay [1] relates to pre-osteoblastic cell line MC3T3-E1 subclone 4. The assay is described as follows: Osteoblast alkaline phosphatase (ALP) activity. Type of assay: cell-based. The settings on record: 7 days of differentiation, without ascorbic acid; MK-7 3 μM, VitD 1 nM, VitA 100 nM (FIG. 1A). An excerpt: (§1) The pre-osteoblastic cell line MC3T3-E1 subclone 4 (CRL-2593) was purchased from ATCC (Manassas; Virginia, USA). Cells were maintained in growth medium (GM) composed of ascorbic acid-free aMEM (ThermoFisher Scientific), supplemented with 10% fetal calf serum (FCS, ThermoFisher Scientific) and 1% penicillin/streptomycin. All culture media were refreshed every 2-3 days. Cells were passaged with trypsin/EDTA solution at less than 80% confluence. To induce differentiation into osteoblasts, cells were seeded at 5×10^4 cells/cm^2 and grown to confluency in GM for 24 h. Then, the medium was switched to differentiation medium (DM) composed of GM supplemented with 10 mM β-glycerophosphate and treatment solutions of interest. Ascorbic acid 50 μg/ml was also added to the DM depending on the experiment.
MC3T3-E1 subclone 4 cells were differentiated for 7 days without ascorbic acid, except for the positive control, and with the following treatment solutions: a mix composed of 3μM of vit.K2 (menaquinone-7), 100 nM of vit.A (all-trans-retinoic acid) and 1 nM of vit.D (1a,25-Dihydroxyvitamin D3); a mix called “SCFA20” composed of 15 μM of sodium acetate, 4 μM of sodium propionate and 1 μM of sodium butyrate; a mix called “SCFA50” composed of 37.5 μM of sodium acetate, 10 μM of sodium propionate and 2.5 μM of sodium butyrate; a mix called “SCFA60” composed of 45 μM of sodium acetate, 12 μM of sodium propionate and 3 μM of sodium butyrate. The vitamin mix was also combined to the 3 different combinations of short-chain fatty acids (SCFA).
After 7 days of differentiation, cells were then collected for alkaline phosphatase (ALP) activity measurement as described previously with minor modifications. […] Enzymatic reaction was monitored at 405 nm after 4-Nitrophenyl phosphate disodium salt hexahydrate addition. Michaelis-Menten kinetics were evaluated at 30° C. for 30 min. […] The activity value was normalized by protein content measured via the Pierce BCA Protein Assay Kit (ThermoFisher Scientific) according to the manufacturer's instructions.

For the next assay, the system named is osteocalcin. Description: Osteocalcin mRNA levels (qPCR) in pre-osteoblastic cell line MC3T3-E1 subclone 4. In kind it is cell-based. The following applies: 21 days of differentiation, without ascorbic acid; MK-7 3 μM, VitD 1 nM, VitA 100 nM (FIG. 1B).
Excerpt: as §1
MC3T3-E1 subclone 4 cells were differentiated for 21 days (in DM without ascorbic acid except for the positive control) or 28 days (in DM containing ascorbic acid). Cells were then collected for gene expression analysis. […] RNA concentrations were measured using the DropSense96 (TRINEAN, Gentbrugge, Belgium).
CDNAs were synthetized using High-Capacity cDNA Reverse Transcription Kit (AppliedBiosystems; Waltham, Massachusetts, USA) according to the manufacturer's instructions. […] The relative gene expression was evaluated via the 2^-ΔCt method.
For orientation: In qPCR the cycle at which signal appears reflects the starting amount.

In the case of `CC(C)=CCC/C(C)=C/CC/C(C)=C/CC/C(C)=C/CC/C(C)=C/CC/C(C)=C/CC/C(C)=C/CC1=C(C)C(=O)c2ccccc2C1=O` [vitamin K2, menaquinone-7], the “ALP activity (marker of osteoblast differentiation)” value in assay [1] was “no significant effect”.
Take `C=C1/C(=C\C=C2/CCC[C@]3(C)[C@@H]([C@H](C)CCCC(C)(C)O)CC[C@@H]23)C[C@@H](O)C[C@@H]1O` [vitamin D, 1α,25-Dihydroxyvitamin D3]: in the assay with osteocalcin, the “Osteocalcin mRNA levels” value is “no significant effect”. Further, the “ALP activity (marker of osteoblast differentiation)” value in assay [1] is on record as “significant effect”.
On the same counts, the results for `CC1=C(/C=C/C(C)=C/C=C/C(C)=C/C(=O)O)C(C)(C)CCC1` [vitamin A, all-trans-retinoic acid] are “no significant effect” and “significant effect”.
